This note sets out measurements from the NIST ThermoML archive (doi:10.1016/j.jct.2005.01.015).

The data set in a line: activity coefficient (dimensionless); of the first substance listed, at infinite dilution; xn = mol fraction of the nth substance listed. The note with it: 101 kPa, Liquid, Chromatography, x1 = 0.

± gives the expanded uncertainty stated by the source.

With `CCCCCCCC` [octane] + CCCCn1cc[n+](C)c1.COCCOCCOS(=O)(=O)[O-], the activity coefficient (298.15 K) came to 156 ± 7.3, the activity coefficient (303.15 K) was determined as 140 ± 6.6 and the activity coefficient (308.15 K) came out at 130 ± 6.1.

For `Cc1ccccc1` [toluene] + CCCCn1cc[n+](C)c1.COCCOCCOS(=O)(=O)[O-], the activity coefficient reads like this: (298.15 K) 3.72 ± 0.17; (303.15 K) 3.69 ± 0.17; (308.15 K) 3.66 ± 0.17.

As to `CCCCC` [pentane] + CCCCn1cc[n+](C)c1.COCCOCCOS(=O)(=O)[O-], the activity coefficient runs as follows: (298.15 K) 61.7 ± 2.9; (303.15 K) 57.1 ± 2.7; (308.15 K) 54.9 ± 2.6.

For the compound `C#CCCCCCC` [1-octyne] + CCCCn1cc[n+](C)c1.COCCOCCOS(=O)(=O)[O-], the activity coefficient (298.15 K) was 11.7 ± 0.5, the activity coefficient (303.15 K) stood at 11.4 ± 0.5 and the activity coefficient (308.15 K) worked out at 11.6 ± 0.5.

Consider `c1ccccc1` [benzene] + CCCCn1cc[n+](C)c1.COCCOCCOS(=O)(=O)[O-], for which the activity coefficient reads like this: (298.15 K) 2.04 ± 0.09; (303.15 K) 2.02 ± 0.09; (308.15 K) 2.03 ± 0.09.

As for `C1CCCC1` [cyclopentane] + CCCCn1cc[n+](C)c1.COCCOCCOS(=O)(=O)[O-], the activity coefficient (298.15 K) amounted to 22.7 ± 1.1, the activity coefficient (303.15 K) is 20.9 ± 1 and the activity coefficient (308.15 K) amounted to 20.5 ± 0.9.

Regarding `C=CCCCC` [hex-1-ene] + CCCCn1cc[n+](C)c1.COCCOCCOS(=O)(=O)[O-], the activity coefficient (298.15 K) worked out at 35.1 ± 1.6, the activity coefficient (303.15 K) is 32.9 ± 1.5 and the activity coefficient (308.15 K) is 31.4 ± 1.5.

With `CCCCCCC` [heptane] + CCCCn1cc[n+](C)c1.COCCOCCOS(=O)(=O)[O-], the activity coefficient is 111 ± 5.2 (298.15 K), 100 ± 4.7 (303.15 K) and 94.5 ± 4.4 (308.15 K).

`C1CCCCCC1` [cycloheptane] + CCCCn1cc[n+](C)c1.COCCOCCOS(=O)(=O)[O-]: the activity coefficient by setting is: (298.15 K) 41.8 ± 1.9; (303.15 K) 38.2 ± 1.8; (308.15 K) 36.4 ± 1.7.

With `C#CCCCC` [1-hexyne] + CCCCn1cc[n+](C)c1.COCCOCCOS(=O)(=O)[O-], the activity coefficient by setting is: (298.15 K) 4.83 ± 0.22; (303.15 K) 4.74 ± 0.22; (308.15 K) 4.91 ± 0.22.

For the compound `ClC(Cl)(Cl)Cl` [tetrachloromethane] + CCCCn1cc[n+](C)c1.COCCOCCOS(=O)(=O)[O-], the activity coefficient (298.15 K) was 2.81 ± 0.13, the activity coefficient (303.15 K) came to 2.85 ± 0.13 and the activity coefficient (308.15 K) was determined as 2.91 ± 0.13.

In the case of `C=CCCCCCC` [oct-1-ene] + CCCCn1cc[n+](C)c1.COCCOCCOS(=O)(=O)[O-], the activity coefficient is, setting by setting: (298.15 K) 74.9 ± 3.5; (303.15 K) 69.9 ± 3.3; (308.15 K) 67.1 ± 3.1.

For the compound `CO` [methanol] + CCCCn1cc[n+](C)c1.COCCOCCOS(=O)(=O)[O-], the activity coefficient is 0.345 ± 0.035 (298.15 K), 0.342 ± 0.035 (303.15 K) and 0.337 ± 0.035 (308.15 K).

Turning to `C1CCCCC1` [cyclohexane] + CCCCn1cc[n+](C)c1.COCCOCCOS(=O)(=O)[O-], the activity coefficient is, setting by setting: (298.15 K) 34.4 ± 1.6; (303.15 K) 31.5 ± 1.5; (308.15 K) 30.3 ± 1.4.

Turning to `CCCCCC` [hexane] + CCCCn1cc[n+](C)c1.COCCOCCOS(=O)(=O)[O-], the activity coefficient (298.15 K) turned out to be 80.9 ± 3.8, the activity coefficient (303.15 K) amounted to 74.1 ± 3.5 and the activity coefficient (308.15 K) was found to be 71.1 ± 3.3.

As for `C#CCCCCC` [1-heptyne] + CCCCn1cc[n+](C)c1.COCCOCCOS(=O)(=O)[O-], the activity coefficient was determined as 7.37 ± 0.34 (298.15 K), 7.22 ± 0.33 (303.15 K) and 7.42 ± 0.34 (308.15 K).
